We go through 7 compounds from patent US20260335300A1, “Synthetic Nicotine Analogue Formulation For Nicotine Replacement and Amplication” (priority 2023, published 2026).

Structures are written as SMILES.

For series [1] the following is noted: background statement, cited from earlier work; for satisfaction in oral and nasal products: novel oral and nasal nicotine products; for satisfaction and 'throat-hit' sensation: novel tobacco products.
In series [2] the test system is rats. To be noted: acute oral.
Series [3] can be described thus: in vivo. As to conditions: rat, po.
Series [4] deals with mice. To be noted: comparison value; cited from earlier work.
The test system of series [5] is rats. As to conditions: comparison value; cited from earlier work.
A short description of series [6]: Chemical stability in air / exposure to atmosphere for 24 hours, discoloration, blending. It is filed as physicochemical.
Series [7] deals with mice. To be noted: mouse, in vivo.
The nature of series [8]: Solubility in appropriate solvents. The class given is physicochemical. To be noted: in the appropriate solvents.

Regarding `COC(=O)C1=CCCN(C)C1` [arecoline], in series [1], the “satisfaction in oral and nasal products” value is reported as “limited satisfaction due to a lack of satisfactory sensations”; the “satisfaction and 'throat-hit' sensation” value is “lack of satisfaction and ‘throat-hit’ sensation”.

One may read the LD50 as the dose expected to kill half of the subjects tested. Read a low LD50 as a more toxic substance. `Cc1ccc([C@@H]2CCCN2C)cn1.O=C(O)c1ccccc1` [(S)-6-Methylnicotine benzoate]: in series [2] (equivalent effective use basis), the “reduction in toxicity versus nicotine on an equivalent effective use basis” value was 2 order of magnitude. Moreover, in series [2] (versus nicotine), the “toxicity relative to nicotine” value is listed as “half to one quarter as toxic”. In [3], this compound returned an LD50 of 120 to 215 mg/kg.

As for `CN1CCCC1c1cccnc1` (stereo not drawn) [nicotine], the figures for the “acute oral LD50 of nicotine” value in series [4] and in [5] were “about 3.3 mg/kg BW” and 50 mg/kg, respectively. In addition, the “yellowing on exposure to atmosphere” value in series [6] (exposed to atmosphere for 24 hours) is recorded as “yellowing was observed sooner than (S)-6-Methylnicotine”.

Take `Cc1ccc([C@H]2CCCN2C)cn1` [(R)-6-Methylnicotine, reference compound]: the “efficacy as nicotine analogue and flavor” value (enantiomer, no test described) was “not effective as a nicotine analogue, and contributes to unpleasant flavors”.

As for `Cc1ccc([C@@H]2CCCN2C)cn1` [(S)-6-Methylnicotine, (S)-2-methyl-5-(1-methylpyrrolidin-2-yl)pyridine], the “reduction of oral toxicity versus nicotine” value in series [7] was ~3 order of magnitude. Further, in series [7] (po), the “toxicity compared to nicotine, in words” value is “both less toxic, and can be used in lower amounts than nicotine”. In addition, the solubility entry in series [8] is “acceptable for all of the aforementioned applications”. In addition, the “chemical stability compared to nicotine” value in series [6] (degradation and discoloration) was “more chemically stable than nicotine, and resists degradation and discoloration”. Besides, the “lifetime in the air relative to nicotine” value in series [6] (in the air, versus nicotine, may potentially) is recorded as not above 5 times. The “stability when blended with other compounds” value in [6] (versus nicotine, blended with other compounds) is reported as “more stable than nicotine when blended with other compounds”. Further, the “resistance to higher temperatures” value in series [6] (versus nicotine, may) is “may be able to resist higher temperatures”. Further, where the note is “in words”, the “relief from cravings / subjective hit sensation” value is given as “induces a subjective “hit” sensation which satisfies cravings”. In addition, the “onset of action compared to nicotine” value (preliminary, versus nicotine) is listed as “may be faster acting”.

For `CN1CCCC1c1cccnc1` (racemic) [racemic nicotine], in series [1], the “satisfaction and 'throat-hit' sensation” value was “does not induce the distinctive satisfaction and ‘throat-hit’ sensation”.

For `O=c1cccc2n1C[C@@H]1CNC[C@H]2C1` [cytisine], in series [1], the “satisfaction in oral and nasal products” value is listed as “limited satisfaction due to a lack of satisfactory sensations”; the “satisfaction and 'throat-hit' sensation” value is “lack of satisfaction and ‘throat-hit’ sensation”.
